pIC50: −log10 of the molar value.
Key:
[1] = Drug transport across human Caco-2 cells (permeability); type: in vitro ADME; details: pH 7.2, 37° C.; for efflux ratio: PEBA/PEAB, Caco-2 monolayers; for Papp A→B: apical-to-basal (absorptive) apparent permeability across Caco-2 monolayers, read-out: PEAB; for Papp B→A: basal-to-apical (secretory) apparent permeability across Caco-2 monolayers, read-out: PEBA
Procedure: The assay provides information on the potential of a compound to pass the cell membrane, on the extent of oral absorption as well as on whether the compound is actively transported by uptake and/or efflux transporters. Permeability measurements across polarized, confluent Caco-2 cell monolayers grown on permeable filter supports are used as the in vitro absorption model. Apparent permeability coefficients (PE) of the compounds across the Caco-2 monolayers are measured (pH 7.2, 37° C.) in apical-to-basal (AB) (absorptive) and basal-to-apical (BA) (secretory) transport direction. AB permeability (PEAB) represents drug absorption from the intestine into the blood and BA permeability (PEBA) drug secretion from the blood back into the intestine via both passive permeability as well as active transport mechanisms mediated by efflux and uptake transporters that are expressed on the Caco-2 cells. The compounds are assigned to permeability/absorption classes by comparison of the AB permeabilities with the AB permeabilities of reference compounds with known in vitro permeability and oral absorption in the human. Identical or similar permeabilities in both transport directions indicate passive permeation, vectorial permeability points to additional active transport mechanisms. […] Active transport is concentration-dependently saturable.
Caco-2 cells obtained from the Leibniz Institute DSMZ-German Collection of Microorganisms and Cell Cultures GmbH (1-2×10^5 cells/1 cm^2 area) are seeded on filter inserts (Costar transwell polycarbonate or PET filters, 0.4 μm pore size) and cultured (DMEM) for 10 to 25 days. Compounds are dissolved in appropriate solvent (like DMSO, 1-20 mM stock solutions). Stock solutions are diluted with HTP-4 buffer (128.13 mM NaCl, 5.36 mM KCl, 1 mM MgSO4, 1.8 mM CaCl2), 4.17 mM NaHCO3, 1.19 mM Na2HPO4×7H2O, 0.41 mM NaH2PO4×H2O, 15 mM HEPES, 20 mM glucose, pH 7.2) containing 0.25% BSA to prepare the transport solutions (0.1-300 μM compound, final DMSO≤0.5%). The transport solution (TL) is applied to the apical or basolateral donor side for measuring A-B or B-A permeability (3 filter replicates), respectively. The receiver side contains HTP-4 buffer supplemented with 0.25% BSA. Samples are collected at the start and end of experiment from the donor and at various time intervals (0, 30, 60, and 90 minutes) for up to 2 hours also from the receiver side for concentration measurement by HPLC-MS/MS or scintillation counting. Sampled receiver volumes are replaced with fresh receiver solution. Compounds are assigned to the following permeability/oral absorption classes: • Very low: […] • Low: 1×10^−7 cm/s<PEAB<6×10^−7 cm/sec • Moderate: 6×10^−7 cm/sec<PEAB<5×10^−6 cm/sec • Good: 5×10^−6 cm/s<[…]
Compounds are classified with respect to (permeability) efflux ratios (PEBA/PEAB) given below whether they are likely to be actively transported: • no: 0.67<=ratio <=1.5 • probable (active efflux): 1.5<ratio <=2 • probable (active uptake): […] • yes (active efflux): 2<ratio • yes (active uptake): ratio <0.5

[2] = target: T1, PHGDH (Homo sapiens, UniProt O43175); assay: 3-Phosphoglycerate dehydrogenase (PHGDH) Fluorescence Intensity Assay; type: biochemical; details: full length recombinant PHGDH, 500 μM NAD and 500 μM 3-PG, 240 minutes incubation, room temperature
T1 construct: The full length version of PHGDH enzyme was expressed in BL21 (DE3) E. coli; HIS-tag (N); TEV cleavage site (N); made in house; host or cells: E. coli BL21 (DE3)
T1 sequence (O43175 1-533): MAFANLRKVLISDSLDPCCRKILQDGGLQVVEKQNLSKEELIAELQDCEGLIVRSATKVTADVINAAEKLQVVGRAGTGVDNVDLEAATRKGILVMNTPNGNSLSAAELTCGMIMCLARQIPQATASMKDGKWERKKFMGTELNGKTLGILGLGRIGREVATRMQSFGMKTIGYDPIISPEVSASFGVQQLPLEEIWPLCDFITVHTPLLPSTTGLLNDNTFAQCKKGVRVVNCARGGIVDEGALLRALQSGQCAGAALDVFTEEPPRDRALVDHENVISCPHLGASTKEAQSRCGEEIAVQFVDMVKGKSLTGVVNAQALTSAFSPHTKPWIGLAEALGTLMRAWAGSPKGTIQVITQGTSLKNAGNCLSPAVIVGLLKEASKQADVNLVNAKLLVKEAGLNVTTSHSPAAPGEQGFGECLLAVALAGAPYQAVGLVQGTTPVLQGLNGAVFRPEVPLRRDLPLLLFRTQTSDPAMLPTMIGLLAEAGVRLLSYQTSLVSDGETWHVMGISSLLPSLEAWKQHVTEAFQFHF
Excerpt: 3-Phosphoglycerate dehydrogenase (PHGDH) Fluorescence Intensity Assay This assay is used to identify compounds which inhibit the enzymatic activity of PHGDH which catalyzes the reaction of 3-Phosphoglycerate (3-PG) and NAD to 3-Phosphohydroxypyruvate and NADH.
The produced NADH is used in a coupled reaction for Diaphorase mediated reduction of Resazurin to Resorufin which can be measured in a Fluorescence Intensity readout.
The full length version of PHGDH enzyme was expressed in BL21 (DE3) E. coli through transformation with a plasmid containing the PHGDH cDNA with an N-terminal HIS-tag and a TEV cleavage site. The recombinant protein was then isolated with Ni-NTA beads and eluted on MONO Q ion exchange chromatography columns. The fractions corresponding to PHGDH were de-salted and concentrated to be used in the biochemical assay.
The 3-phosphoglycerate substrate was purchased from Sigma. NAD, Diaphorase and Resazurin were purchased from Sigma Aldrich.
Compounds are dispensed onto assay plates (black, low volume, flat bottom 384 well, Corning) using an Access Labcyte Workstation with the Labcyte Echo 55× from a DMSO solution. For the chosen highest assay concentration of 100 μM, 150 nl of compound solution are transferred from a 10 mM DMSO compound stock solution. A series of 11 concentrations (10 1:5 steps) is transferred for each compound.
DMSO is added such that every well has a total of 150 nl compound solution.
The assay has been performed using 500 μM NAD and 500 μM 3-PG (final assay concentrations).
5 μl of PHGDH protein (final assay concentration 100 ng/ml) in assay buffer (125 mM Tris-HCl, pH 7.5; 56.25 mM hydrazine sulfate pH 9.0; 2.5 mM EDTA; assay specific NAD concentration; 0.0125% Tween20) are added to the 150 nl of compounds.
10 μl of a mix containing assay specific 3-PG concentration (500 μM), Resazurin (25 µM final assay concentration) and Diaphorase (35 μg/ml final assay concentration) are added. Plates are kept at room temperature. After 240 minutes incubation time the fluorescence signal is measured in a PerkinElmer Envision HTS Multilabel Reader with an excitation wavelength at 530-560 nm and an emission wavelength at 590 nm.
Each plate contains negative controls (diluted DMSO instead of test compound; reaction as described with PHGDH protein) and positive controls (diluted DMSO instead of test compound; reaction as described with buffer instead of PHGDH protein). Negative and positive control values are used for normalization.
A known inhibitor of PHGDH activity is used as internal control.
IC50 values are calculated and analyzed in the MEGALAB IC50 application using a 4 parametric logistic model.

SMILES | efflux ratio [1] | Papp A→B [1] | Papp B→A [1] | pIC50 [2]
Cc1cc(Cl)c2cc(C(=O)N[C@H](C)c3ccc(C4(C(=O)O)CCOCC4)cc3)n(C)c2c1 [Example 5] | 1.2 | 10 ×10⁻⁶ cm/s | 12 ×10⁻⁶ cm/s | 7.60
Cc1cc2c(cc1Cl)cc(C(=O)N[C@H](C)c1ccc(C3(C(=O)O)CCOCC3)cc1)n2C [Example 6] | 1.1 | 7.9 ×10⁻⁶ cm/s | 8.4 ×10⁻⁶ cm/s | 6.03
Cc1cc(Cl)c2cc(C(=O)N[C@H](C)c3ccc(S(=O)(=O)C4(C(=O)O)CCOCC4)cc3)n(C)c2c1 [Comp-1, reference compound] | – | < 0.4 ×10⁻⁶ cm/s | 0.2 ×10⁻⁶ cm/s | –
Cc1cc2c(cc(C(=O)N[C@H](C)c3ccc(C4(C(=O)O)CCOCC4)cc3)n2C)c(F)c1Cl [Example 2] | 1.2 | 11 ×10⁻⁶ cm/s | 13 ×10⁻⁶ cm/s | 7.57
Cc1cc2c(cc(C(=O)N[C@H](C)c3ccc(C4(C(=O)O)CCOCC4)cc3)n2C)c(Cl)c1F [Example 3] | 0.6 | 16 ×10⁻⁶ cm/s | 9.1 ×10⁻⁶ cm/s | 8.00
Cc1cc2c(cc(C(=O)N[C@H](C)c3ccc(C4(C(=O)O)CCOCC4)cc3)n2C)c(Cl)c1Cl [Example 1] | 0.9 | 17.1 ×10⁻⁶ cm/s | 14.6 ×10⁻⁶ cm/s | 8.22
Cc1cc(Cl)c2cc(C(=O)N[C@H](C)c3ccc(S(=O)(=O)C4(C(=O)O)CCCC4)cc3)n(C)c2c1 [Comp-2, reference compound] | 1.8 | 0.2 ×10⁻⁶ cm/s | 0.4 ×10⁻⁶ cm/s | –
Cc1cc2c(cc(C(=O)N[C@H](C)c3ccc(C4(C(=O)O)CCOCC4)cc3)n2C)c(F)c1F [Example 4] | 0.8 | 12 ×10⁻⁶ cm/s | 9.2 ×10⁻⁶ cm/s | 7.51
Cc1cc(Cl)c2cc(C(=O)N[C@H](C)c3ccc(S(=O)(=O)C4(C(=O)O)CC4)cc3)n(C)c2c1 [Comp-3, reference compound] | 17 | 0.1 ×10⁻⁶ cm/s | 1.7 ×10⁻⁶ cm/s | –
